How the values were obtained:
SNU16 cells = assay: Inhibition of proliferation of SNU16 cells (CCK-8); type: cell-based; settings: Homo sapiens, SNU-16, 72 h
Procedure: The inhibitory effect on proliferation of SNU16 cells of a compound was examined by CCK-8 Cell Counting Kit (Dojindo). The steps are as follows: SNUI 6 cells at Logarithmic growth phase were seeded in a 96-well culture plate at appropriate density, 90 ul for each well. After cultured overnight, different concentrations of drugs were added and treated for 72 h, while solvent control well was set (negative control). After 72 h, the influence of the compound on the proliferation of cells was observed by CCK-8 cell counting kit (Dojindo). 10 μL of CCK-8 reagent was added to each well. After incubated for 2-4 hours in a 37° C. incubator, the plate was read with SpectraMax 190 microplate reader at wavelength 450 nm.
The IC50 values were obtained by four-parameter regression analysis using the software supplied with the microplate reader.

ErbB2 = ErbB2 (Homo sapiens (Human), UniProt P04626); assay: In vitro tyrosine kinase inhibition screening (ELISA); type: biochemical; settings: 1 h
Procedure: (§1) 4. In Vitro Screening Test on Tyrosine Kinase Activity Inhibition Screening method: Enzyme-linked immunosorbent assay (ELISA) tyrosine kinase: Enzyme spectrum Time of action: 1 h

EPH-A2 = EPH-A2 (Homo sapiens (Human), UniProt P29317); assay: as above; type: biochemical; settings: 1 h
EPH-A2, sequence (P29317 24-976): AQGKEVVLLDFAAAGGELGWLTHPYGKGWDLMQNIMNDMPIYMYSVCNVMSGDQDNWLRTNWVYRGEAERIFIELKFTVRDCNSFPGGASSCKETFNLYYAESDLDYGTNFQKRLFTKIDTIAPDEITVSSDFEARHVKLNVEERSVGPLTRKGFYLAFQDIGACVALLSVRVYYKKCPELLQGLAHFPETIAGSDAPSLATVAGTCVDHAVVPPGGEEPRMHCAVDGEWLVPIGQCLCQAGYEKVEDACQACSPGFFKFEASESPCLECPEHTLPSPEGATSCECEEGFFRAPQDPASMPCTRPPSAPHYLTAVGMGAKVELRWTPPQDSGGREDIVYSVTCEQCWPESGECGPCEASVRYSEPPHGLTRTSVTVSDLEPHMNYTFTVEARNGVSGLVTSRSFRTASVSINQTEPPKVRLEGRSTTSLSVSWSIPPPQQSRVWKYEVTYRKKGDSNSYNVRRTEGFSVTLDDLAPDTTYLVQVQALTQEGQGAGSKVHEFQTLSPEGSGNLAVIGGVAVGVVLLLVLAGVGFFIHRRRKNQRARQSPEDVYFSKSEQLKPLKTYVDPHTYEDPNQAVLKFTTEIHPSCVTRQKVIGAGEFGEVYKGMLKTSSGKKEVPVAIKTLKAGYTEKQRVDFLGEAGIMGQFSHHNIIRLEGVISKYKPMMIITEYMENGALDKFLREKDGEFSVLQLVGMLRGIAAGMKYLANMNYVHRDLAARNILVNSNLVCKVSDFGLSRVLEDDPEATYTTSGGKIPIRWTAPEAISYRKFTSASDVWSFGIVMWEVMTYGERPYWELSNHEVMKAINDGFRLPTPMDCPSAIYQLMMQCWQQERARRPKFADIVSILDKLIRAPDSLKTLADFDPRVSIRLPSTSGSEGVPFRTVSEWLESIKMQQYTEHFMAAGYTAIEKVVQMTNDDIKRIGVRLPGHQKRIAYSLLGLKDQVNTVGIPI
Procedure: as §1

PDGFR-α = PDGFR-α (Homo sapiens (Human), UniProt P16234); assay: as above; type: biochemical; settings: 1 h
PDGFR-α, sequence (P16234 24-1089): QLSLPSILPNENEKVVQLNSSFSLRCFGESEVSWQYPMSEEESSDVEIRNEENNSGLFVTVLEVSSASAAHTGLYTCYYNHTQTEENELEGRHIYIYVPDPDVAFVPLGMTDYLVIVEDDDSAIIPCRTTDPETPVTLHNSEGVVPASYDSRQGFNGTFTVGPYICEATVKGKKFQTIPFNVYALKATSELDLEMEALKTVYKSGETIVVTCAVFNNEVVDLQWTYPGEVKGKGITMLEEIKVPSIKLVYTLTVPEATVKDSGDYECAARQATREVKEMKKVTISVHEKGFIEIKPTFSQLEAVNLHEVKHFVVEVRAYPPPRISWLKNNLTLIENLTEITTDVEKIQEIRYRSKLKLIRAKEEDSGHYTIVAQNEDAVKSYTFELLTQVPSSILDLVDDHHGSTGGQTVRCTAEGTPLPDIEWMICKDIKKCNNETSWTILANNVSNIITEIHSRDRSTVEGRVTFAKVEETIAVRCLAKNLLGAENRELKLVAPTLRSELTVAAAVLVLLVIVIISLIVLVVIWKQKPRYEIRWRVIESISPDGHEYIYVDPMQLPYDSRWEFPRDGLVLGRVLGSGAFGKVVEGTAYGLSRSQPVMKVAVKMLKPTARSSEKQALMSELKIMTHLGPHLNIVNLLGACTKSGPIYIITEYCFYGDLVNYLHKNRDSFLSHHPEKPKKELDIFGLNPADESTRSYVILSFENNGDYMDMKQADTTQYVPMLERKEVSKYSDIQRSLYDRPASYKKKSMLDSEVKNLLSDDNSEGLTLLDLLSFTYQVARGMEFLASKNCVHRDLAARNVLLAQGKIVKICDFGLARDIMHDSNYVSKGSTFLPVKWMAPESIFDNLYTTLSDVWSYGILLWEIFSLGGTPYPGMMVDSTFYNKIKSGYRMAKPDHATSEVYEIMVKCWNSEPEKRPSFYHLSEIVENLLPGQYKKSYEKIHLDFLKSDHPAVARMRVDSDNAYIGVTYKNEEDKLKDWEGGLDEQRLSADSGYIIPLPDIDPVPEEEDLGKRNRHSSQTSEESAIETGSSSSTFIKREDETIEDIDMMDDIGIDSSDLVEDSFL
Procedure: as §1

PDGFR-β = PDGFR-β (Homo sapiens (Human), UniProt P09619); assay: as above; type: biochemical; settings: 1 h
Procedure: as §1

c-Src = c-Src (Homo sapiens (Human), UniProt P12931); assay: as above; type: biochemical; settings: 1 h
c-Src, sequence (P12931 whole entry, looked up, species assumed): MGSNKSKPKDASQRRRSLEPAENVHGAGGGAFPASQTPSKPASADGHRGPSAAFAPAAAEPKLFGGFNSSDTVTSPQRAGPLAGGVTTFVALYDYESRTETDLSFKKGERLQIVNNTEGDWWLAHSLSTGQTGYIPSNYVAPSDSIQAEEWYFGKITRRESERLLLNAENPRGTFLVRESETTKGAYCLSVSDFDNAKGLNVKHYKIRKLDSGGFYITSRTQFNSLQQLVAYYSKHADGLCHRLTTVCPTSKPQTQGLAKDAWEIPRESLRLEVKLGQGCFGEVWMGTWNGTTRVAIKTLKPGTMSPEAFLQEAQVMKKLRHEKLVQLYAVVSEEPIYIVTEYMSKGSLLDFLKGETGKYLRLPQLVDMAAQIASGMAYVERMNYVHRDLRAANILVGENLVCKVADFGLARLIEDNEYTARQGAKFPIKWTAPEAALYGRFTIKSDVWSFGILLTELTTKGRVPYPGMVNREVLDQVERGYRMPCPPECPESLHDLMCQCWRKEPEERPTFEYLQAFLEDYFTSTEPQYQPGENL
Procedure: as §1

IGF1R = IGF1R (Homo sapiens (Human), UniProt P08069); assay: as above; type: biochemical; settings: 1 h
IGF1R, sequence (P08069 31-1367, species assumed): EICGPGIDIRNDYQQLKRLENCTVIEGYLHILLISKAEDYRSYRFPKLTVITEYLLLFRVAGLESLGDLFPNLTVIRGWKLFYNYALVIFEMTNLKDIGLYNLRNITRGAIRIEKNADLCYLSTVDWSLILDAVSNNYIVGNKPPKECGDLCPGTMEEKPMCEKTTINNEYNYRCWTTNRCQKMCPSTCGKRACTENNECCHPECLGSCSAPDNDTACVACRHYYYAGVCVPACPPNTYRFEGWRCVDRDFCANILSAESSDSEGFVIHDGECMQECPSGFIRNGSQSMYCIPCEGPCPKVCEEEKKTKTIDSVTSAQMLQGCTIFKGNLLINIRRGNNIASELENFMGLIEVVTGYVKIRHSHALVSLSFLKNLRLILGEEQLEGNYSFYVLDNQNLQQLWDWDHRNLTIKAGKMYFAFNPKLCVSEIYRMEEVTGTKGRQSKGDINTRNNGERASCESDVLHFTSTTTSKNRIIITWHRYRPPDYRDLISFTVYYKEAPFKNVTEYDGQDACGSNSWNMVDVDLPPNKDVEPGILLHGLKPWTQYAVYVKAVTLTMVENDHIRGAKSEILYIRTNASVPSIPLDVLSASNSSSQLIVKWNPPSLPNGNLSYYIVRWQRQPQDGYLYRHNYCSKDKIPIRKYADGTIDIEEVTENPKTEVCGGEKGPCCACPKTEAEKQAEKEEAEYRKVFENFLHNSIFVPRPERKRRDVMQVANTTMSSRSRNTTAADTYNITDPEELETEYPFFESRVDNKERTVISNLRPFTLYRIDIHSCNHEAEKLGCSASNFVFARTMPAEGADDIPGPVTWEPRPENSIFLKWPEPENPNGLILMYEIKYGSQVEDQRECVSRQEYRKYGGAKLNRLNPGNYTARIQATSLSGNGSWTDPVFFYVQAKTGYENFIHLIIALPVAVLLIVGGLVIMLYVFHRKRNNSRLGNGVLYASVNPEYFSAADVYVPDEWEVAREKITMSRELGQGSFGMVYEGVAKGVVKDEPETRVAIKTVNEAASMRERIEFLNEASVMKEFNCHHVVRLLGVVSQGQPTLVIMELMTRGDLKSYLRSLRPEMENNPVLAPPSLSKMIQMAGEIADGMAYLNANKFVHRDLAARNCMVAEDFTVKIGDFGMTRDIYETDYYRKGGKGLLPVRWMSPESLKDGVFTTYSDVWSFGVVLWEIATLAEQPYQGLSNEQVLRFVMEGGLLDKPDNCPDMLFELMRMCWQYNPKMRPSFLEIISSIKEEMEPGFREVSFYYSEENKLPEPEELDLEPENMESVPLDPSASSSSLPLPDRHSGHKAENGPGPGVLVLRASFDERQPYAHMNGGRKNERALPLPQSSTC
Procedure: as §1

EGFR = EGFR (Homo sapiens (Human), UniProt P00533); assay: as above; type: biochemical; settings: 1 h
EGFR, sequence (P00533 25-1210, species assumed): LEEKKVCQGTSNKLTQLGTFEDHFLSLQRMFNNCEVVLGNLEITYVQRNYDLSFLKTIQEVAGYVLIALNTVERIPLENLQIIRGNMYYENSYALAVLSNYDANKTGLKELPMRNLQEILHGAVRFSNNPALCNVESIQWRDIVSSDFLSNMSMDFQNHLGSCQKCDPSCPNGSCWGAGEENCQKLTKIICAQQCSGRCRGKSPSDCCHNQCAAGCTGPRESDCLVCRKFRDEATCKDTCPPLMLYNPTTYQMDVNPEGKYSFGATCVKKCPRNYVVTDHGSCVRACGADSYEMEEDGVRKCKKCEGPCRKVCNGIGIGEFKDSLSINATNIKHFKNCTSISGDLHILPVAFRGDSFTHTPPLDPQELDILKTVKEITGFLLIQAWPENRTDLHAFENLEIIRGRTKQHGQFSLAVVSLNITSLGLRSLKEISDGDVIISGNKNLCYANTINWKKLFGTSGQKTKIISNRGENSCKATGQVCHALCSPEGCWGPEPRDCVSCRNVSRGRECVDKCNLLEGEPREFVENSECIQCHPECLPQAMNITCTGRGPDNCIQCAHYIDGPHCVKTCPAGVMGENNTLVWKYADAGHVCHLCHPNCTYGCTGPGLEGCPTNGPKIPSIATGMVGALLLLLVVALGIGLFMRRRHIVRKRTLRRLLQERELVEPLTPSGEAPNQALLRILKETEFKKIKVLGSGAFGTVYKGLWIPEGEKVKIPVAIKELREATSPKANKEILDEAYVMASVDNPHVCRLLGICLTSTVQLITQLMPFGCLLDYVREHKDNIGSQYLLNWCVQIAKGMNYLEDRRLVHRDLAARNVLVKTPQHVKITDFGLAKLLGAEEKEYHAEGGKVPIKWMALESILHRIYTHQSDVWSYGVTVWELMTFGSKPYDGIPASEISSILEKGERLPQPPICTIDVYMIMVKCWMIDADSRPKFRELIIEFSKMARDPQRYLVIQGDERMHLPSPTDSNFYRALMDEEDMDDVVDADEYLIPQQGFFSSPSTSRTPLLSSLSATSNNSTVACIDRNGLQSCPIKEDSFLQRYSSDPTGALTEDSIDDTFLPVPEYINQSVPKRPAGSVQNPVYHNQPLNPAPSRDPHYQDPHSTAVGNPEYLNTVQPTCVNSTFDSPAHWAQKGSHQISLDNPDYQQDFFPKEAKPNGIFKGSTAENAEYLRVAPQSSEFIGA
Procedure: as §1

VEGFR-1 = VEGFR-1 (Homo sapiens (Human), UniProt P17948); assay: as above; type: biochemical; settings: 1 h
Procedure: as §1

ABL = ABL (Homo sapiens (Human), UniProt P00519); assay: as above; type: biochemical; settings: 1 h
Procedure: as §1

c-Met = c-Met (Homo sapiens (Human), UniProt P08581); assay: as above; type: biochemical; settings: 1 h
Procedure: as §1

RET = RET (Homo sapiens (Human), UniProt P07949); assay: as above; type: biochemical; settings: 1 h
Procedure: as §1

ErbB4 = ErbB4 (Homo sapiens (Human), UniProt Q15303); assay: as above; type: biochemical; settings: 1 h
Procedure: as §1

VEGFR-2 = VEGFR-2 (Homo sapiens (Human), UniProt P35968); assay: as above; type: biochemical; settings: 1 h
Procedure: as §1

Pharmacokinetics in rats = type: in vivo; settings: male, rat, plasma, SD rats
Procedure: Seven SD rats, male, weighing 200-220 g, were randomly divided into two groups, 4 or 3 in each group. Compound S10 was administrated by intragastric or intravenous administration.
Rats were fasted for 12 h before test, and had access to water ad libitum. The rats were uniformly fed 2 h after administration of.
Blood sample time point and sample preparation:
intragastric administration: 0.25, 0.5, 1.0, 2.0, 4.0, 6.0, 8.0 and 24 h after administration;
intravenous administration: 5 min, 0.25, 0.5, 1.0, 2.0, 4.0, 6.0, 8.0 and 24 h after administration;
0.3 mL of venous blood was collected at the above time points via the rat eye vein venous plexus, placed in a heparinized test tube, and centrifuged at 11000 rpm for 5 min, and plasma was separated and frozen in a −20° C. refrigerator.
S10 in rat plasma was determined by LC/MS/MS.
The pharmacokinetic parameters after administration were calculated by a non-compartmental model of WinNonlin 6.3 software (Pharsight, USA).
The peak concentration Cmax and the peak time Tmax are measured values; The area under the curve of the drug-time AUC0-t value: calculated by the trapezoidal method; AUC0-∞=AUC0-t+Ct/ke, Ct is the blood concentration of drug at the last measurable time point;
ke is the elimination rate constant;
Elimination half-life t1/2=0.693/ke;
Clearance rate CL=D/AUC0-∞;
Volume of steady state distribution Vss=CL×MRT;

## CNC(=O)c1cccc2cc(Oc3ccnc(NC(=O)c4ccc(N5C[C@@H](C)N[C@@H](C)C5)cc4)c3)ccc12 [Compound S10]
SNU16 cells
  IC50: 6.1 nM
SNU16 cells; 10 nM, 72 h, read-out: Inhibition ratio (%)
  inhibition at 0.01 µM: 59.6%
SNU16 cells; 100 nM, 72 h, read-out: Inhibition ratio (%)
  inhibition at 0.1 µM: 62.1%
SNU16 cells; 1000 nM, 72 h, read-out: Inhibition ratio (%)
  inhibition at 1 µM: 59.7%
ErbB2; 10 nM
  Inhibition ratio (%) ErbB2: 17.4%
ErbB2; 1000 nM
  Inhibition ratio (%) ErbB2: 22.2%
EPH-A2; 10 nM
  Inhibition ratio (%) EPH-A2: 4.2%
EPH-A2; 1000 nM
  Inhibition ratio (%) EPH-A2: 7.7%
PDGFR-α; 10 nM
  Inhibition ratio (%) PDGFR-α: 50.2%
PDGFR-α; 1000 nM
  Inhibition ratio (%) PDGFR-α: 87.1%
PDGFR-β; 10 nM
  Inhibition ratio (%) PDGFR-β: 56.4%
PDGFR-β; 1000 nM
  Inhibition ratio (%) PDGFR-β: 87.8%
c-Src; 10 nM
  Inhibition ratio (%) c-Src: 20.3%
c-Src; 1000 nM
  Inhibition ratio (%) c-Src: 43.6%
IGF1R; 10 nM
  Inhibition ratio (%) IGF1R: 23.5%
IGF1R; 1000 nM
  Inhibition ratio (%) IGF1R: 11.0%
EGFR; 10 nM
  Inhibition ratio (%) EGFR: 9.6%
EGFR; 1000 nM
  Inhibition ratio (%) EGFR: 11.3%
VEGFR-1; 10 nM
  Inhibition ratio (%) VEGFR-1: 75.6%
VEGFR-1; 1000 nM
  Inhibition ratio (%) VEGFR-1: 100.0%
ABL; 10 nM
  Inhibition ratio (%) ABL: 17.5%
ABL; 1000 nM
  Inhibition ratio (%) ABL: 28.8%
c-Met; 10 nM
  Inhibition ratio (%) c-Met: 11.2%
c-Met; 1000 nM
  Inhibition ratio (%) c-Met: 29.5%
RET; 10 nM
  Inhibition ratio (%) RET: 13.2%
RET; 1000 nM
  Inhibition ratio (%) RET: 90.5%
ErbB4; 10 nM
  Inhibition ratio (%) ErbB4: 2.0%
ErbB4; 1000 nM
  Inhibition ratio (%) ErbB4: 7.0%
VEGFR-2; 10 nM
  Inhibition ratio (%) VEGFR-2: 90.4%
VEGFR-2; 1000 nM
  Inhibition ratio (%) VEGFR-2: 98.7%
Pharmacokinetics in rats; oral, intragastric 10 mg/kg vs intravenous 5 mg/kg
  bioavailability: 79.6%
Pharmacokinetics in rats; po, intragastric 10 mg/kg
  AUC(0-t): 3430 ng·h/mL
  Cmax: 399 ng/mL
  Tmax: 4.5 h
  half-life: 3.55 h
Pharmacokinetics in rats; intravenous 5 mg/kg
  clearance: 40.8 mL/min/kg
  half-life: 3.69 h
Pharmacokinetics in rats; intravenous 5 mg/kg, read-out: Vss
  Vd: 11.3 L/kg
